Experimental data: patent US4436751A, “Nitrobenzyl monates antibacterial compounds” (Beecham Group Limited, priority 1980, dated 1984)
≈ marks a conversion by molar mass, not a printed value. Read-outs that look alike come from different tables or passages of the source.

How the values were obtained:
Format in all cases: cell-based
M. suipneumoniae NB12 = assay: Anti-mycoplasmal MIC in vitro, Friis broth agarose (Table 1); settings: Mesomycoplasma hyopneumoniae, NB12, 144 h
M. suipneumoniae LABER = assay: as above; settings: Mesomycoplasma hyopneumoniae, 144 h
Past. multocida PA1 = assay: Veterinary bacteria MIC, Diagnostic Sensitivity Test Agar (Table 2); settings: Pasteurella multocida, PA1, 18 h
Method: (§1) The values were determined using a two fold serial dilutions in Diagnostic Sensitivity Test Agar with an inoculum of 10^4 organisms and incubation for 18 hours at 37° C.

Bord. bronchiseptica BO8 = assay: as above; settings: Bordetella bronchiseptica, BO8, 18 h
Method: as §1

Strep. uberis SPO1 = assay: as above; settings: Streptococcus uberis
Method: as §1

Past. multocida PA2 = assay: as above; settings: Pasteurella multocida, PA2, 18 h
Method: as §1

Past. haemolytica PA5 = assay: as above; settings: Mannheimia haemolytica
Method: as §1

Staph. aureus B4 = assay: as above; settings: Staphylococcus aureus
Method: as §1

Bord. bronchiseptica BO9 = assay: as above; settings: Bordetella bronchiseptica
Method: as §1

E. Coli NCTC 10418 = assay: as above; settings: Escherichia coli, NCTC10418, 18 h
Method: as §1

Staph. aureus 152 = assay: as above
Method: as §1

[1] = test system: Strep. suis (group D) SPS11; assay: as above; settings: Streptococcus suis, 18 h
Method: as §1

[2] = test system: Erysipelothrix rhusiopathiae NCTC 8163; assay: as above; settings: Erysipelothrix rhusiopathiae, NCTC8163, 18 h
Method: as §1

[3] = test system: Corynebacterium pyogenes CY1; assay: as above; settings: Trueperella pyogenes, CY1, 18 h
Method: as §1

Staph. aureus Oxford = assay: as above; settings: Staphylococcus aureus
Method: as §1

Strep. dylgalactiae SPD1 = assay: as above
Method: as §1

S. typhimurium S18 = assay: as above; settings: Salmonella enterica, TYPHIMURIUM, 18 h
Method: as §1

Strep. agalactiae SPA1 = assay: as above; settings: Streptococcus agalactiae
Method: as §1

S. dublin S7 = assay: as above; settings: Salmonella enterica, S7, 18 h
Method: as §1

M. gallisepticum S6 = assay: Anti-mycoplasmal MIC in vitro, Friis broth agarose (Table 1); settings: Mycoplasmoides gallisepticum, S6, 144 h
M. hyorhinis ATCC 23234 = assay: as above; settings: Mesomycoplasma hyorhinis, ATCC23234, 144 h
M. suipneumoniae MS 16 = assay: as above; settings: Mesomycoplasma hyopneumoniae, MS16, 144 h
M. suipneumoniae TAM 6N = assay: as above; settings: Mesomycoplasma hyopneumoniae, TAM6N, 144 h
[4] = test system: M. suipneumoniae J2206/183b; assay: as above; settings: Mesomycoplasma hyopneumoniae, J2206/183B, 144 h
[5] = test system: M. bovigenitalium ATOC 14173; assay: as above; settings: 144 h
M. suipneumoniae Str. 11 = assay: as above; settings: Mesomycoplasma hyopneumoniae, STR.11, 144 h
M. dispar RCTC 10125 = assay: as above; settings: 144 h
[6] = Staphylococcus aureus, 152, 18 h

Row | SMILES | MIC (M. suipneumoniae NB12) | MIC (M. suipneumoniae LABER) | MIC (Past. multocida PA1) | MIC (Bord. bronchiseptica BO8) | MIC (Strep. uberis SPO1; SPO1, 18 h) | MIC (Past. multocida PA2) | MIC (E. Coli NCTC 10418) | MIC [1] | MIC [2] | MIC [3] | MIC (S. typhimurium S18) | MIC (S. dublin S7) | MIC (M. gallisepticum S6) | MIC (M. hyorhinis ATCC 23234) | MIC (M. suipneumoniae MS 16) | MIC (M. suipneumoniae TAM 6N) | MIC [4] | MIC [5] | MIC (M. suipneumoniae Str. 11) | MIC (M. dispar RCTC 10125) | also measured
1 | C/C(=C\C(=O)OCc1ccc([N+](=O)[O-])c([N+](=O)[O-])c1)CC1OCC(CC2OC2C(C)C(C)O)C(O)C1O (stereo not drawn) [Example 9, 3,4-dinitrobenzyl monate A] | 0.25 µg/mL (≈ 0.477 µM) | 0.25 µg/mL (≈ 0.477 µM) | 0.625 µg/mL (≈ 1.19 µM) | 10 µg/mL (≈ 19.1 µM) | 0.156 µg/mL (≈ 0.297 µM) | 0.156 µg/mL (≈ 0.297 µM) | 80 µg/mL (≈ 153 µM) | 5 µg/mL (≈ 9.53 µM) | 40 µg/mL (≈ 76.3 µM) | > 80 µg/mL | 80 µg/mL (≈ 153 µM) | > 80 µg/mL | 5 µg/mL (≈ 9.53 µM) | 0.25 µg/mL (≈ 0.477 µM) | 0.25 µg/mL (≈ 0.477 µM) | 0.5 µg/mL (≈ 0.953 µM) | 1 µg/mL (≈ 1.91 µM) | ≤ 0.01 µg/mL | 0.25 µg/mL (≈ 0.477 µM) | 0.025 µg/mL (≈ 0.0477 µM) | MIC (Past. haemolytica PA5; PA5, 18 h): 5 µg/mL (≈ 9.53 µM); MIC (Staph. aureus B4; B4, 18 h): 0.625 µg/mL (≈ 1.19 µM); MIC (Bord. bronchiseptica BO9; BO9, 18 h): 5 µg/mL (≈ 9.53 µM); MIC (Staph. aureus 152; [6]): 0.312 µg/mL (≈ 0.595 µM); MIC (Staph. aureus Oxford; 18 h): 0.312 µg/mL (≈ 0.595 µM); MIC (Strep. dylgalactiae SPD1; 18 h): 0.07 µg/mL (≈ 0.133 µM); MIC (Strep. agalactiae SPA1; SPA1, 18 h): 0.312 µg/mL (≈ 0.595 µM)
2 | C/C(=C\C(=O)OCc1ccc([N+](=O)[O-])cc1[N+](=O)[O-])CC1OCC(CC2OC2C(C)C(C)O)C(O)C1O (stereo not drawn) [Example 10, 2,4-dinitrobenzyl monate A] | 1 µg/mL (≈ 1.91 µM) | 0.5 µg/mL (≈ 0.953 µM) | 2.5 µg/mL (≈ 4.77 µM) | 40 µg/mL (≈ 76.3 µM) | 0.312 µg/mL (≈ 0.595 µM) | 0.625 µg/mL (≈ 1.19 µM) | > 80 µg/mL | 5 µg/mL (≈ 9.53 µM) | 20 µg/mL (≈ 38.1 µM) | > 80 µg/mL | > 80 µg/mL | > 80 µg/mL | 5 µg/mL (≈ 9.53 µM) | 0.5 µg/mL (≈ 0.953 µM) | 0.5 µg/mL (≈ 0.953 µM) | 1 µg/mL (≈ 1.91 µM) | 1 µg/mL (≈ 1.91 µM) | 0.025 µg/mL (≈ 0.0477 µM) | 0.5 µg/mL (≈ 0.953 µM) | 0.25 µg/mL (≈ 0.477 µM) | MIC (Past. haemolytica PA5; PA5, 18 h): 2.5 µg/mL (≈ 4.77 µM); MIC (Staph. aureus B4; B4, 18 h): 0.625 µg/mL (≈ 1.19 µM); MIC (Bord. bronchiseptica BO9; BO9, 18 h): 5 µg/mL (≈ 9.53 µM); MIC (Staph. aureus 152; [6]): 0.625 µg/mL (≈ 1.19 µM); MIC (Staph. aureus Oxford; 18 h): 0.625 µg/mL (≈ 1.19 µM); MIC (Strep. dylgalactiae SPD1; 18 h): 0.312 µg/mL (≈ 0.595 µM); MIC (Strep. agalactiae SPA1; SPA1, 18 h): 1.25 µg/mL (≈ 2.38 µM)
3 | C/C(=C\C(=O)OCc1ccc([N+](=O)[O-])cc1Cl)CC1OCC(CC2OC2C(C)C(C)O)C(O)C1O (stereo not drawn) [Example 11, 2-chloro-4-nitrobenzyl monate A] | 1 µg/mL (≈ 1.95 µM) | 1 µg/mL (≈ 1.95 µM) | 0.625 µg/mL (≈ 1.22 µM) | 10 µg/mL (≈ 19.5 µM) |  | 0.156 µg/mL (≈ 0.304 µM) | 80 µg/mL (≈ 156 µM) | 0.625 µg/mL (≈ 1.22 µM) | 5 µg/mL (≈ 9.73 µM) | > 80 µg/mL | 80 µg/mL (≈ 156 µM) | 80 µg/mL (≈ 156 µM) | 2.5 µg/mL (≈ 4.86 µM) | 0.5 µg/mL (≈ 0.973 µM) | 1 µg/mL (≈ 1.95 µM) | 2.5 µg/mL (≈ 4.86 µM) | 1 µg/mL (≈ 1.95 µM) | 0.05 µg/mL (≈ 0.0973 µM) | 1 µg/mL (≈ 1.95 µM) | 0.5 µg/mL (≈ 0.973 µM) | MIC (Strep. uberis SPO1; Strep. uberis SPO1, DST Agar, 10^4 organisms, 18 hours 37° C., read-out: MIC): ≤ 0.019 µg/mL; MIC (Past. haemolytica PA5; Past. haemolytica PA5, DST Agar, 10^4 organisms, 18 hours 37° C., read-out: MIC): 2.5 µg/mL (≈ 4.86 µM); MIC (Staph. aureus B4; Staph. aureus B4, DST Agar, 10^4 organisms, 18 hours 37° C., read-out: MIC): 0.156 µg/mL (≈ 0.304 µM); MIC (Bord. bronchiseptica BO9; Bord. bronchiseptica BO9, DST Agar, 10^4 organisms, 18 hours 37° C., read-out: MIC): 2.5 µg/mL (≈ 4.86 µM); MIC (Staph. aureus 152; Staphylococcus aureus, Staph. aureus 152, DST Agar, 10^4 organisms, 18 hours 37° C., read-out: MIC): 0.07 µg/mL (≈ 0.136 µM); MIC (Staph. aureus Oxford; Staph. aureus Oxford, DST Agar, 10^4 organisms, 18 hours 37° C., read-out: MIC): 0.07 µg/mL (≈ 0.136 µM); MIC (Strep. dylgalactiae SPD1; Strep. dylgalactiae SPD1, DST Agar, 10^4 organisms, 18 hours 37° C., read-out: MIC): 0.156 µg/mL (≈ 0.304 µM); MIC (Strep. agalactiae SPA1; Strep. agalactiae SPA1, DST Agar, 10^4 organisms, 18 hours 37° C., read-out: MIC): 0.156 µg/mL (≈ 0.304 µM)
